Each structure is given as a SMILES string.

One compound from PMC8249783, “A novel multikinase inhibitor SKLB‐YTH‐60 ameliorates inflammation and fibrosis in bleomycin‐induced lung fibrosis mouse models” (Cell Proliferation, 2021) can be followed below.

This assay relates to A549 cells. The experiment in a line: Cell viability assay (MTT). In kind it is cell-based, human. The method, then: The cell viability of YTH‐60 and Nintedanib treatment was performed by MTT and CCK8 assay. Briefly, the exponentially growing cells were seeded in 96‐well (2‐5 × 10^3 cells·well^−1) and cultured for 24 hours. The cells were treated with different concentrations of YTH‐60 (0, 0.625, 1.25, 2.5, 5, 10 µmol·L^−1), after treatment for 24, 48 and 72 hours, respectively, a volume of 20 μL of 5 mg·mL^−1 MTT solution or 10 μL CCK‐8 solution was added to each well and incubation for 2‐4 hours at 37°C. Finally, the 96‐well plates were read on Multiskan FC microplate spectrophotometer at 570 or 450 nm wavelength.

Consider `COc1cc(OC)c(Cl)c(-c2ccc3c(/C=C/c4ccc(N(C)C(=O)CN5CCN(C)CC5)cc4)n[nH]c3c2)c1Cl` [YTH‐60, (E)‐N‐(4‐(2‐(6‐(2,6‐dichloro‐3,5‐dimethoxyphenyl)‐1H‐indazol‐3‐yl)vinyl)phenyl)‐N‐methyl‐2‐(4‐methylpiperazin‐1‐yl)acetamide], for which the “viability of A549 cells (in words)” value is reported as “suppressed the viability of A549 cells”.
